Reference: patent US20250144227A1, “C-16 MODIFIED TRIOXACARCINS, ANTIBODY DRUG CONJUGATES, AND USES THEREOF” (President and Fellows of Harvard College, priority 2021, published 2025)
Like-named read-outs stand apart in the source and are kept apart here.

Tested on: H460 cells
Assay: Cell proliferation assay (resazurin, CellTiter-Blue), H460 cells
Type: cell-based
Settings: for GI50: Homo sapiens; for Effect of the C16 modification on potency (in words): comment on the data of Table 2 (H460 cells)
Protocol: Cell Culture: All cell-culture work was conducted in a class II biological safety cabinet. H460 cells (P2-P4, American Type Culture Collection) were maintained in RPMI-1640 medium supplemented with 10% fetal bovine serum (FBS). HL-60 cells (P2-P4, American Type Cuture Collection) were maintained in RPMI-1640 medium supplemented with 10% FBS. MES-SA/Dx-5 cells (P2-P4, European Collection of Authenticated Cell Cultures) were maintained in McCoy's 5A medium supplemented with 10% FBS.
Cell Proliferation Assay: H460 and MES-SA/Dx-5 cells were grown to approximately 80% confluence, and then were trpysinized, collected, and pelleted by centrifugation (10 min at 183 x g, 24° C.), and HL-60 cells were grown to confluence and directly pelleted by centrifugation (10 min at 183 × g, 24° C.). The supernatant was discarded and the cell pellet was resuspended in 10 mL of fresh medium. A sample was diluted 10-fold in fresh medium, and the concentration of cells was determined using a hemacytometer. The cell suspension was diluted to a concentration of 3000 cells/100 μL. The wells of a pre-sterilized 96-well plate were charged with 100 μL per well of the diluted cellular suspension. The plate was incubated for 24 h at 37° C. (5% CO2).
Stock solutions of each compound in DMSO were diluted with the appropriate media to 100 nM solutions (1% DMSO), which were then serially diluted with the appropriate media, and 100-uL aliquots of the resulting solutions were added to the wells containing adhered cells to achieve final concentrations of 0.39 nM to 50 nM. After incubating at 37° C. for 72 h (5% CO2), 20 μL of resazurin solution (Promega CellTiter-Blue® Cell Viability Assay) was added to each well. After incubating at 37° C. for 2.0 h (5% CO2), the fluorescence (544 nm excitation/590 nm emission) was recorded using a microplate reader (SpectraMax PLUS384) as a measure of viable cells.
Percent growth inhibition was calculated for each well, based upon the following formula: Percent growth inhibition=100×(S−B0)/(Bt−B0) where S is the sample fluorescence, Bt is the average fluorescence of an untreated population of cells at the completion of the assay, and B0 is the average fluorescence of an untreated population of cells at the beginning of the assay.
Each compound was assayed at eight separate concentrations per experiment. The percent inhibition at each concentration was plotted against log (concentration), and a curve fit was generated using the XLfit4 plugin (IDBS Software) running in Excel (Microsoft). GI50 values were computed to reflect the concentrations at which the resulting curves pass through 50% inhibition.

[1] = NCI-H460, H460 cells, 72 h incubation, read-out: GI50

GI50 [1] [nM] | SMILES | GI50 (NCI-H460, 72 h) [nM] | Effect of the C16 modification on potency (in words)
– | COc1c2c(c(O)c3c4c(c(C)cc13)C1OC3(CO[C@@H]5O[C@H](COC(C)=O)[C@@H](OC(C)=O)[C@H](OC(C)=O)[C@H]5OC(C)=O)OC1[C@@](OC)(O4)[C@@]31CO1)C(=O)CCC2 (stereo partly drawn) [compound 28, (2R,3R,4S,5R,6R)-2-(Acetoxymethyl)-6-(((2R,13a′R)-12′-hydroxy-7′,13a′-dimethoxy-5′-methyl-11′-oxo-3a′,8′,9′,10′,11′,13a′-hexahydro-2′H,4′H-spiro [oxirane-2,1′-[2,4]epoxyfuro[3,2-b]naphtho[2,3-h]chromen]-2′-yl)methoxy) tetrahydro-2H-pyran-3,4,5-triyl triacetate] | > 100 | poorly tolerated
> 100 | COc1c2c(c(O)c3c4c(c(C)cc13)C1O[C@]3(COCc5ccccc5)O[C@H]1[C@@](OC)(O4)[C@@]31CO1)C(=O)CCC2 (stereo partly drawn) [compound 18, (2R,2′R,3a′R, 13a′R)-2′-((Benzyloxy)methyl)-12′-hydroxy-7′,13a′-dimethoxy-5′-methyl-3a′,4′,8′,9′,10′,13a′-hexahydro-2′H, 11′H-spiro [oxirane-2,1′-[2,4]epoxyfuro[3,2-b]naphtho[2,3-h]chromen]-11′-one] | – | –
– | COc1c2c(c(O)c3c4c(c(C)cc13)C1OC3(COC5CC(C)(O)C(OC(C)=O)C(C)O5)OC1[C@@](OC)(O4)[C@@]31CO1)C(=O)CCC2 (stereo partly drawn) [compound 30, (25,3S,4R,6S)-4-Hydroxy-6-(((2R,13a′R)-12′-hydroxy-7′,13a′-dimethoxy-5′-methyl-11′-oxo-3a′,8′,9′,10′,11′,13a′-hexahydro-2′H,4′H-spiro [oxirane-2,1′-[2,4]epoxyfuro[3,2-b]naphtho[2,3-h]chromen]-2′-yl)methoxy)-2,4-dimethyltetrahydro-2H-pyran-3-yl acetate] | 20 | well tolerated
– | C#CCOCC12OC3c4c(C)cc5c(OC)c6c(c(O)c5c4O[C@](OC)(C3O1)[C@@]21CO1)C(=O)CCC6 (stereo partly drawn) [compound 24, (2R,2′R,3a′R,13a′R)-12′-Hydroxy-7′,13a′-dimethoxy-5′-methyl-2′-((prop-2-yn-1-yloxy)methyl)-3a′,4′,8′,9′,10′,13a′-hexahydro-2′H,11′H-spiro[oxirane-2,1′-[2,4]epoxyfuro[3,2-b]naphtho[2.3-h]chromen]-11′-one] | 14 | –
> 100 | COc1c2c(c(O)c3c4c(c(C)cc13)C1OC3(COCc5ccccc5)OC1[C@@](O)(O4)[C@@]31CO1)C(=O)CCC2 (stereo partly drawn) [compound 17, (2S,2′R,3a′R, 13a′R)-2′-((Benzyloxy)methyl)-12′, 13a′-dihydroxy-7′-methoxy-5′-methyl-3a′ 4′,8′,9′,10′,13a′-hexahydro-2′H,11′H-spiro [oxirane-2,1′-[2,4]epoxyfuro[3,2-b]naphtho[2,3-h]chromen]-11′-one] | – | –
– | COc1c2c(c(O)c3c4c(c(C)cc13)C1OC3(CSC(C)=O)OC1[C@@](OC)(O4)[C@@]31CO1)C(=O)CCC2 (stereo partly drawn) [compound 33, S-(((25,2'S,3a′R,13a′R)-12′-hydroxy-7′,13a′-dimethoxy-5′-methyl-11′-oxo-3a′,8′,9′,10′,11′,13a′-hexahydro-2′H,4′H-spiro [oxirane-2,1′-[2,4]epoxyfuro[3,2-b]naphtho[2,3-h]chromen]-2′-yl)methyl)ethanethioate] | 100 | lack of activity
20 | COc1c2c(c(O)c3c4c(c(C)cc13)C1OC3(CBr)OC1[C@@](OC)(O4)[C@@]31CO1)C(=O)CCC2 (stereo partly drawn) [compound 32, (2S,2′S,3a′R,13a′R)-2′-(Bromomethyl)-12′-hydroxy-7′,13a′-dimethoxy-5′-methyl-3a′,4′,8′9′,10′,13a′-hexahydro-2′H,11′H-spiro [oxirane-2,1′-[2,4]epoxyfuro[3,2-b]naphtho[2,3-h]chromen]-11′-one] | – | good tolerance
10 | COc1c2c(c(O)c3c4c(c(C)cc13)C1O[C@]3(CN)O[C@H]1[C@@](OC)(O4)[C@@]31CO1)C(=O)CCC2 (stereo partly drawn) [compound 26, (2R,2′R,3a′R,13a′R)-2′-(Aminomethyl)-12′-hydroxy-7′,13a′-dimethoxy-5′-methyl-3a′, 4′,8′,9′,10′, 13a′-hexahydro-2′H, 11′H-spiro[oxirane-2,1′-[2,4]epoxyfuro[3,2-b]naphtho[2,3-h]chromen]-11′-one] | – | good tolerance
– | COc1c2c(c(O)c3c4c(c(C)cc13)C1OC3(COCc5cn(Cc6ccccc6)nn5)OC1[C@@](OC)(O4)[C@@]31CO1)C(=O)CCC2 (stereo partly drawn) [compound 27, (2R,2′R,3a′R,13a′R)-2′-(((1-Benzyl-1H-1,2,3-triazol-4-yl)methoxy)methyl)-12′-hydroxy-7′,13a′-dimethoxy-5′-methyl-3a′,4′,8′,9′, 10′, 13a′-hexahydro-2′H,11′H-spiro [oxirane-2, 1′-[2,4]epoxyfuro[3,2-b]naphtho[2.3-h]chromen]-11′-one] | > 100 | ablates potency
– | COc1c2c(c(O)c3c4c(c(C)cc13)C1O[C@]3(CN=[N+]=[N-])O[C@H]1[C@@](OC)(O4)[C@@]31CO1)C(=O)CCC2 (stereo partly drawn) [compound 25, (2R,2′R,3a′R,13a′R)-2′-(Azidomethyl)-12′-hydroxy-7′,13a′-dimethoxy-5′-methyl-3a′, 4′,8′,9′,10′,13a′-hexahydro-2′H,11′H-spiro[oxirane-2,1′-[2,4]epoxyfuro[3,2-b]naphtho[2,3-h]chromen]-11′-one] | 33 | good tolerance
– | COc1c2c(c(O)c3c4c(c(C)cc13)C1OC3(COCC5OC(CO)C(O)C(O)C5O)OC1[C@@](OC)(O4)[C@@]31CO1)C(=O)CCC2 (stereo partly drawn) [compound 29, (2R,13a′R)-12′-Hydroxy-7′,13a′-dimethoxy-5′-methyl-2′-((((2R,3R,4S,5S,6R)-3,4,5-trihydroxy-6-(hydroxymethyl)tetrahydro-2H-pyran-2-yl)oxy)methyl)-3a′ 4′,8′,9′, 10′,13a′-hexahydro-2′H. 11′H-spiro [oxirane-2,1′-[2,4]epoxyfuro[3,2-b]naphtho[2,3-h]chromen]-11′-one] | – | poorly tolerated
14 | C=CCOCC12OC3c4c(C)cc5c(OC)c6c(c(O)c5c4O[C@](OC)(C3O1)[C@@]21CO1)C(=O)CCC6 (stereo partly drawn) [compound 23, (2R,2′R,3a′R,13a′R)-2′-((Allyloxy)methyl)-12′-hydroxy-7′,13a′-dimethoxy-5′-methyl-3a′,4′,8′,9′,10′,13a′-hexahydro-2′H, 11′H-spiro[oxirane-2,1′-[2,4]epoxyfuro[3,2-b]naphtho[2.3-h]chromen]-11′-one] | – | –
– | COc1c2c(c(O)c3c4c(c(C)cc13)C1OC3(CO)OC1[C@@](OC)(O4)[C@@]31CO1)C(=O)CCC2 (some centres unmarked) [compound 19, (2R.2′R,3a′R, 13a′R)-12′-Hydroxy-2′-(hydroxymethyl)-7′,13a′-dimethoxy-5′-methyl-3a′, 4′,8′,9′,10′,13a′-hexahydro-2′H, 11′H-spiro [oxirane-2,1′-[2,4]epoxyfuro[3,2-b]naphtho[2,3-h]chromen]-11′-one] | 5.5 | –
– | COc1c2c(c(O)c3c4c(c(C)cc13)[C@@H]1O[C@]3(COP(=O)(O)O)O[C@@H]1[C@@](OC)(O4)[C@@]31CO1)C(=O)CCC2 [compound 35, ((2R,2′R,3a'S,4'S,13a′R)-12′-hydroxy-7′,13a′-dimethoxy-5′-methyl-11′-oxo-3a′,8′,9′,10′,11′,13a′-hexahydro-2′H,4′H-spiro [oxirane-2,1′-[2,4]epoxyfuro[3,2-b]naphtho[2,3-h]chromen]-2′-yl)methyl dihydrogen phosphate] | 35 | good tolerance
15 | COc1c2c(c(O)c3c4c(c(C)cc13)C1OC3(CO)OC1[C@@](O)(O4)[C@@]31CO1)C(=O)CCC2 (stereo partly drawn) [compound 20, (25,2′R,3a′R, 13a′R)-12′, 13a′-dihydroxy-2′-(hydroxymethyl)-7′-methoxy-5′-methyl-3a′, 4′,8′,9′,10′,13a′-hexahydro-2′H,11′H-spiro[oxirane-2,1′-[2.4]epoxyfuro[3,2-b]naphtho[2,3-h]chromen]-11′-one] | – | –
